The text below walks through data of patent publication US20240368664A1, “LIVE YEAST BIOSENSORS AND METHODS OF USE THEREOF” (priority 2021, published 2024).

No end group written: not given here.

One assay relates to SsSte2 mutants. In kind it is cell-based, Scheffersomyces stipites.
In the next assay the test system is mutant SsSte2. The class given is cell-based, Scheffersomyces stipites.

For the sequence KHWPQIAQFAPS [nucleocapsid epitope], the “biosensor signal compared to signal in the presence of water” value in the assay with SsSte2 mutants was “over twice as strong”. Further, the EC50 in the assay with mutant SsSte2 was roughly 10 µM.

One may read the EC50 as the midpoint of the concentration-response curve.
